Experimental data reported in ChEMBL document CHEMBL4190378, “Synthesis and evaluation of new 2-chloro-4-aminopyrimidine and 2,6-dimethyl-4-aminopyrimidine derivatives as tubulin polymerization inhibitors” (Bioorg Med Chem Lett, 2018).

How the values were obtained:
HeLa = experiment: Antiproliferative activity against human HeLa cells incubated for 48 hrs by MTT assay; format: functional, cell-based
HCT-116 = experiment: Antiproliferative activity against human HCT116 cells incubated for 48 hrs by MTT assay; format: functional, cell-based; settings: HCT-116, 48 h
MDA-MB-231 = experiment: Antiproliferative activity against human MDA-MB-231 cells incubated for 48 hrs by MTT assay; format: functional, cell-based; settings: MDA-MB-231, 48 h
A549 = experiment: Antiproliferative activity against human A549 cells incubated for 48 hrs by MTT assay; format: functional, cell-based; settings: A549, 48 h
HepG2 = experiment: Antiproliferative activity against human HepG2 cells incubated for 48 hrs by MTT assay; format: functional, cell-based; settings: HepG2, 48 h
[1] = Inhibition of porcine brain tubulin polymerization measured every 60 secs for 90 mins by DAPI dye based fluorescence assay; design: species or system Sus scrofa

| IC50 (HeLa) | IC50 (HCT-116) | IC50 (MDA-MB-231) | IC50 (A549) | IC50 (HepG2) | IC50 [1] | Structure (SMILES) |
| --- | --- | --- | --- | --- | --- | --- |
| 0.471 µM | 0.584 µM | 2.79 µM | 0.632 µM | 2.06 µM | – | COc1ccc(N(C)c2cc(C)nc(C)n2)cc1F |
| 0.316 µM | 1.19 µM | 1.9 µM | 0.78 µM | 0.787 µM | – | COc1ccc(N(C)c2cc(C)nc(C)n2)cc1Cl |
| 7.08 µM | > 10 µM | > 10 µM | 9.71 µM | > 10 µM | – | COc1ccc(N(C)c2ccnc(Cl)n2)cc1OCCCCCBr |
| 0.006 µM | 0.005 µM | – | 0.004 µM | – | 2.74 µM | COc1ccc(N(C)c2nc(C)nc3ccccc23)cc1 [VERUBULIN] |
| 0.917 µM | 1.46 µM | 2.81 µM | 0.611 µM | 2.12 µM | – | COc1ccc(N(C)c2ccnc(Cl)n2)cc1 |
| 0.322 µM | 1.32 µM | 3.65 µM | 0.277 µM | 0.824 µM | – | COc1ccc(N(C)c2cc(C)nc(C)n2)cc1 |
| 0.096 µM | 0.422 µM | 0.833 µM | 0.381 µM | 0.464 µM | 6.11 µM | COc1ccc(N(C)c2ccnc(Cl)n2)cc1O |
| 0.307 µM | 1.14 µM | 0.992 µM | 0.591 µM | 0.168 µM | – | COc1ccc(N(C)c2ccnc(Cl)n2)cc1OCCCCBr |
| 3.31 µM | 5.67 µM | 6.62 µM | 4.64 µM | 7.72 µM | – | COc1ccc(N(C)c2ccnc(Cl)n2)cc1OCCBr |
| > 10 µM | > 10 µM | > 10 µM | > 10 µM | > 10 µM | – | COc1ccc(N(C)c2ccnc(Cl)n2)cc1OCCCCC[Se]C#N |
| 3.72 µM | 4.67 µM | 3.44 µM | 3.27 µM | 2.98 µM | – | COc1ccc(N(C)c2cc(C)nc(C)n2)cc1[N+](=O)[O-] |
| 0.307 µM | 1.97 µM | 1.28 µM | 0.862 µM | 1.24 µM | – | COc1ccc(N(C)c2ccnc(Cl)n2)cc1OCCCBr |
| 0.517 µM | 1.17 µM | 1.38 µM | 0.621 µM | 2.63 µM | – | COc1ccc(N(C)c2ccnc(Cl)n2)cc1Cl |
| 0.241 µM | 0.914 µM | 1.28 µM | 0.651 µM | 0.844 µM | – | COc1ccc(N(C)c2ccnc(Cl)n2)cc1F |
| 4.73 µM | 4.7 µM | 8.12 µM | 3.78 µM | 6.12 µM | – | COc1ccc(N(C)c2ccnc(Cl)n2)cc1[N+](=O)[O-] |

| Structure (SMILES) | IC50 (HeLa) | IC50 (HCT-116) | IC50 (MDA-MB-231) | IC50 (A549) | IC50 (HepG2) | IC50 [1] |
| --- | --- | --- | --- | --- | --- | --- |
| C[Se]c1ccc(N(C)c2cc(C)nc(C)n2)cc1 | 0.138 µM | 0.465 µM | 0.321 µM | 0.218 µM | 0.198 µM | – |
| COc1ccc(N(C)c2ccnc(Cl)n2)cc1OCC[Se]C#N | 0.436 µM | 1.22 µM | 2.75 µM | 0.463 µM | 1.67 µM | – |
| COc1ccc(N(C)c2ccnc(Cl)n2)cc1OCCC[Se]C#N | 4.71 µM | 3.92 µM | 1.49 µM | 3.71 µM | 5.15 µM | – |
| Cc1cc(N(C)c2ccc([Se]C#N)cc2)nc(C)n1 | 0.252 µM | 0.245 µM | 0.614 µM | 0.207 µM | 0.155 µM | – |
| COc1ccc(N(C)c2ccnc(Cl)n2)cc1OCCCC[Se]C#N | > 10 µM | > 10 µM | > 10 µM | > 10 µM | > 10 µM | – |
